The values that follow come from patent EP4806898A1, “HETEROARYL DERIVATIVE COMPOUND AND USE THEREOF” (Voronoi Inc., priority 2023, dated 2025).

One assay deals with UWB1.289 cells. In words: Cell proliferation inhibitory activity in BRCA1/2-mutant or HRD-positive cells (Cell Titer-Glo). The assay is classed as cell-based. The following applies: UWB1289; UWB1.289 cells, 144 hours after compound treatment, Cell Titer-Glo, 1.5 nM to 10 µM; read-out: GI50 UWB1.289 BRCA1 mut. The gist of the method:
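UWB1.289 cells (1,000/well) in 50% MEBM/50% RPMI1640 exposed to […], final 1.5 nM to 10 µM, for 144 h at 37 °C. Viable cells measured by CellTiter-Glo luminescence; GI50 calculated.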

The target of another assay is T1, recombinant USP1 protein (Homo sapiens, UniProt O94782, DEL125-138/DEL229-408/DEL608-737).
T1 sequence (O94782 with tags, fused parts or gaps DEL125-138/DEL229-408/DEL608-737): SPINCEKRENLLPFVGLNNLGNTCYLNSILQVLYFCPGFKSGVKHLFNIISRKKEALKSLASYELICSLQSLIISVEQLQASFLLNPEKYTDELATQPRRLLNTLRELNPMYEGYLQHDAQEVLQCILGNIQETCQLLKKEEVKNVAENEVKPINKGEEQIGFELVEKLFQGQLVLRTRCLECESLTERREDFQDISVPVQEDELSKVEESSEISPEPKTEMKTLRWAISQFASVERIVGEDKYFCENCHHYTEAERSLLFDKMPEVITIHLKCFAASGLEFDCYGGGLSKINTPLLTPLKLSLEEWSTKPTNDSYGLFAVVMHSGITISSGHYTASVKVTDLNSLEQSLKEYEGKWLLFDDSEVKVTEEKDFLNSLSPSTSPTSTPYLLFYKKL
Briefly: Binding affinity to recombinant USP1 protein by differential scanning fluorimetry. The conditions noted are these: compound 100 µM; 0.03 mg/mL USP1 (Δ1-66, Δ125-138, Δ229-408, Δ608-737); Tm with compound minus Tm with DMSO; read-out: ΔTm (°C). The gist of the method: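 USP1 (Δ1-66, Δ125-138, Δ229-408, Δ608-737) at 0.03 mg/mL with dye in 50 mM Tris-HCl pH 8.0, 150 mM NaCl, 2% glycerol, 1 mM DTT; compounds at 100 µM final. Tm read on real-time PCR instrument; ΔTm = Tm with compound minus Tm with DMSO.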
In general terms: DSF heats the sample and reads unfolding from a dye or from intrinsic fluorescence.

One may read the GI50 as the concentration that inhibits growth by half. The ΔTm is the change in melting temperature against a reference sample. On to `[2H]C([2H])([2H])NC(=O)c1cc2cnc(-c3c(OC)ncnc3C3CC3)nc2n1Cc1ccc(-c2nc(C(F)(F)F)cn2C(C)C)cc1` [Example 9, 2-(4-cyclopropyl-6-methoxypyrimidin-5-yl)-7-(4-(1-isopropyl-4-(trifluoromethyl)-1H-imidazol-2-yl)benzyl)-N-(methyl-d3)-7H-pyrrolo[2,3-d]pyrimidine-6-carboxamide], for which the GI50 in the assay on UWB1.289 cells lay within 100 to 500 nM. Also, the ΔTm at 100 µM at recombinant USP1 protein was above 5 °C.

In the case of `COc1ncnc(C2CC2)c1-c1ncc2cc(C(=O)N[C@H](C)C(F)(F)F)n(Cc3ccc(-c4nc(C(F)(F)F)cn4C(C)C)cc3)c2n1` [Example 85, (R)-2-(4-cyclopropyl-6-methoxypyrimidin-5-yl)-7-(4-(1-isopropyl-4-(trifluoromethyl)-1H-imidazol-2-yl)benzyl)-N-(1,1,1-trifluoropropan-2-yl)-7H-pyrrolo[2,3-d]pyrimidine-6-carboxamide], the GI50 in the assay with UWB1.289 cells fell in the range of 100 to 500 nM. Further, the ΔTm at 100 µM at recombinant USP1 protein is above 5 °C.

In the case of `COc1ncnc(C2CC2)c1-c1ncc2cc(C(=O)NC[C@H](C)O)n(Cc3ccc(-c4nc(C(F)(F)F)cn4C)cc3)c2n1` [Example 164, (S)-2-(4-cyclopropyl-6-methoxypyrimidin-5-yl)-N-(2-hydroxypropyl) -7-(4-(1-methyl-4-(trifluoromethyl)-1H-imidazol-2-yl)benzyl)-7H-pyrrolo[2,3-d]pyrimidine-6-carboxamide], the GI50 in the assay with UWB1.289 cells is below 100 nM. Moreover, the ΔTm at 100 µM on recombinant USP1 protein was above 5 °C.

As to `COc1ncnc(C2CC2)c1-c1ncc2cc(C(=O)N[C@H]3CN(C(C)C)C[C@H]3F)n(Cc3ccc(-c4nc(C(F)(F)F)cn4C)cc3)c2n1` [Example 211, 2-(4-cyclopropyl-6-methoxypyrimidin-5-yl)-N-((3S,4R)-4-fluoro-1-isopropylpyrrolidin-3-yl)-7-(4-(1-methyl-4-(trifluoromethyl)-1H-imidazol-2-yl)benzyl)-7H-pyrrolo[2,3-d]pyrimidine-6-carboxamide], in the assay with UWB1.289 cells, the GI50 is below 100 nM. Further, at recombinant USP1 protein, the ΔTm at 100 µM was above 5 °C.

As to `COc1ncnc(C2CC2)c1-c1ncc2cc(C(=O)N3CC(F)C3)n(Cc3ccc(-c4nc(C(F)(F)F)cn4C(C)C)cc3)c2n1` [Example 101, (2-(4-cyclopropyl-6-methoxypyrimid in-5-yl)-7-(4-(1-isopropyl-4-(trifluoromethyl)-1H-imidazol-2-yl)benzyl)-7H-pyrrolo[2,3-d]pyrimidin-6-yl) (3-fluoroazetidin-1-yl)methanone], in the assay on UWB1.289 cells, the GI50 is 100 to 500 nM. For the same compound, the ΔTm at 100 µM at recombinant USP1 protein was above 5 °C.

On to `COc1ncnc(C2CC2)c1-c1ncc2cc(C(=O)NC3CCN(CC(C)(C)F)CC3)n(Cc3ccc(-c4nc(C(F)(F)F)cn4C(C)C)cc3)c2n1` [Example 126, 2-(4-cyclopropyl-6-methoxypyrimidin-5-yl)-N-(1-(2-fluoro-2-methylpropyl)piperidin-4-yl)-7-(4-(1-isopropyl-4-(trifluoromethyl)-1H-imidazol-2-yl)benzyl)-7H-pyrrolo[2,3-d]pyrimidine-6-carboxamide], for which the GI50 with UWB1.289 cells is below 100 nM. Moreover, the ΔTm at 100 µM at recombinant USP1 protein was above 5 °C.

`COc1ncnc(C2CC2)c1-c1ncc2cc(C(=O)N3CC4(COC4)C3)n(Cc3ccc(-c4nc(C(F)(F)F)cn4C(C)C)cc3)c2n1` [Example 35, (2-(4-cyclopropyl-6-methoxypyrimid in-5-yl)-7-(4-(1-isopropyl-4-(trifluoromethyl)-1H-imidazol-2-yl)benzyl)-7H-pyrrolo[2,3-d]pyrimidin-6-yl) (2-oxa-6-azaspiro[3.3]heptan-6-yl)methanone]: the GI50 with UWB1.289 cells is below 100 nM. The ΔTm at 100 µM on recombinant USP1 protein was above 5 °C.

As to `COc1ncnc(C2CC2)c1-c1ncc2cc(C(=O)NC3(CO)COC3)n(Cc3ccc(-c4nc(C(F)(F)F)cn4C(C)C)cc3)c2n1` [Example 138, 2-(4-cyclopropyl-6-methoxypyrimidin-5-yl)-N-(3-(hydroxymethyl)oxetan-3-yl)-7-(4-(1-isopropyl-4-(trifluoromethyl)-1H-imidazol-2-yl)benzyl)-7H-pyrrolo[2,3-d]pyrimidine-6-carboxamide], the GI50 with UWB1.289 cells is below 100 nM. Moreover, the ΔTm at 100 µM at recombinant USP1 protein was above 5 °C.
